Consider one cell line from the supplement of paper PMC10307832.

Experiment in all cases: relative viability (nuclei count vs DMSO), 5 days (fraction); higher = more cells survive
Compound in the assay “CX-5461 + Olaparib”: Cc1cnc(CNC(=O)c2c(=O)c3ccc(N4CCCN(C)CC4)nc3n3c2sc2ccccc23)cn1 [CX-5461] + O=C(c1cc(Cc2n[nH]c(=O)c3ccccc23)ccc1F)N1CCN(C(=O)C2CC2)CC1 [Olaparib] (partner 8 µM)
The procedure, abridged: (§1)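 A single step with final 0.05% Triton X-100, 1% formaldehyde and 1 ug/ml Hoechst fixed the cells and stained nuclei 5 days after treatment. Lung cancer cell lines in 1536-well plates had been treated by pin tool the day after seeding with one drug alone or a fixed anchor-drug dose plus five library-drug doses (not always all listed) in √10 steps, and nuclei were counted on 4× images. Relative viability is the ratio of nuclei in treated wells to nuclei in vehicle wells, taken as the median of duplicate plates.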

Compound in the assay “CX-5461 + Navitoclax”: Cc1cnc(CNC(=O)c2c(=O)c3ccc(N4CCCN(C)CC4)nc3n3c2sc2ccccc23)cn1 [CX-5461] + CC1(C)CCC(c2ccc(Cl)cc2)=C(CN2CCN(c3ccc(C(=O)NS(=O)(=O)c4ccc(N[C@H](CCN5CCOCC5)CSc5ccccc5)c(S(=O)(=O)C(F)(F)F)c4)cc3)CC2)C1 [Navitoclax] (partner 0.5 µM)
Summed up: as §1

Compound in the assay “CX-5461 + Pictilisib”: Cc1cnc(CNC(=O)c2c(=O)c3ccc(N4CCCN(C)CC4)nc3n3c2sc2ccccc23)cn1 [CX-5461] + CS(=O)(=O)N1CCN(Cc2cc3nc(-c4cccc5[nH]ncc45)nc(N4CCOCC4)c3s2)CC1 [Pictilisib] (partner 1 µM)
Summed up:
as §1

Compound in the assay “IMD-0354 + Dasatinib”: O=C(Nc1cc(C(F)(F)F)cc(C(F)(F)F)c1)c1cc(Cl)ccc1O [IMD-0354] + Cc1nc(Nc2ncc(C(=O)Nc3c(C)cccc3Cl)s2)cc(N2CCN(CCO)CC2)n1 [Dasatinib] (partner 0.075 µM)
Summed up:
as §1

As to UMC-11, the relative viability stood at 0.323 with CX-5461 + Olaparib (first compound 0.01 µM); 0.369 with CX-5461 + Olaparib (first compound 0.03162 µM); 0.321 in the assay with CX-5461 + Olaparib (first compound 0.1 µM); 0.395 with CX-5461 + Olaparib (first compound 0.3162 µM); 0.267 with CX-5461 + Olaparib (first compound 1 µM); 0.319 in the assay with CX-5461 + Navitoclax (first compound 0.01 µM). Also, the relative viability with CX-5461 + Navitoclax (first compound 0.03162 µM) came to 0.294; with CX-5461 + Navitoclax (first compound 0.1 µM), 0.302; in the assay with CX-5461 + Navitoclax (first compound 0.3162 µM), 0.282; with CX-5461 + Navitoclax (first compound 1 µM), 0.23; in the assay with CX-5461 + Pictilisib (first compound 0.01 µM) it was 0.869; in the assay with CX-5461 + Pictilisib (first compound 0.03162 µM), 0.835. Besides, the relative viability in the assay with CX-5461 + Pictilisib (first compound 0.1 µM) was determined as 0.76; in the assay with CX-5461 + Pictilisib (first compound 0.3162 µM), 0.149; with CX-5461 + Pictilisib (first compound 1 µM), 0.259; with IMD-0354 + Dasatinib (first compound 0.04 µM), 0.541; in the assay with IMD-0354 + Dasatinib (first compound 0.1265 µM) it was 0.416; with IMD-0354 + Dasatinib (first compound 0.4 µM), 0.246. For the same cell line, the results for the relative viability in the assay with IMD-0354 + Dasatinib (first compound 1.265 µM) and with IMD-0354 + Dasatinib (first compound 4 µM) were 0.171 and 0.206, respectively.
